Test results taken from patent publication US20180000085A1, “USE OF PICOLINAMIDE COMPOUNDS WITH FUNGICIDAL ACTIVITY” (DOW AGROSCIENCES LLC, priority 2014, published 2018).

Legend:
Zymoseptoria tritici = assay: Leaf blotch of wheat (SEPTTR) disease control on wheat seedlings; assay type: in vivo; design: key to SEPTTR 1DP, HV activity at 100 ppm (% control rating) / SEPTTR 3DC, HV activity at 100 ppm (% control rating) / SEPTTR disease control, 1DP / SEPTTR disease control, 3DC / SEPTTR 1DP disease control rating, HV activity / SEPTTR 3DC disease control rating, HV activity / SEPTTR 3DC, LV activity at 125.1 g/H (% Control rating) / SEPTTR 1DP, LV activity at 125.1 g/H (% Control rating) / SEPTTR 1DP disease control rating, LV activity at 125.1 g/H / SEPTTR 3DC disease control rating, LV activity at 125.1 g/H / SEPTTR 3DC disease control rating, HV activity at 100 ppm / SEPTTR 1DP disease control rating, HV activity at 100 ppm / HV activity at 100 ppm SEPTTR 3DC (disease control rating) / HV activity at 100 ppm SEPTTR 1DP (disease control rating) / LV activity at 125.1 g/H SEPTTR 1DP (disease control rating) / LV activity at 125.1 g/H SEPTTR 3DC (disease control rating): A: > 80; B: ≤ 80; C: Not Tested; D: No Activity Observed in the Reported Assay; conditions: for SEPTTR 1DP disease control rating, HV activity / SEPTTR 3DC disease control rating, HV activity: HV application at 100 ppm; for LV activity at 125.1 g/H SEPTTR 1DP (disease control rating) / LV activity at 125.1 g/H SEPTTR 3DC (disease control rating) / SEPTTR 1DP, LV activity at 125.1 g/H (% Control rating) / SEPTTR 3DC, LV activity at 125.1 g/H (% Control rating): low volume application
Puccinia triticina = assay: Wheat brown rust (PUCCRT) disease control on wheat seedlings; assay type: in vivo; design: key to PUCCRT 3DC, HV activity at 100 ppm (% control rating) / PUCCRT disease control, 3DC / PUCCRT 1DP disease control rating, HV activity / PUCCRT 3DC disease control rating, HV activity / PUCCRT 3DC, LV activity at 125.1 g/H (% Control rating) / PUCCRT 1DP, LV activity at 125.1 g/H (% Control rating) / PUCCRT 3DC disease control rating, LV activity at 125.1 g/H / PUCCRT 1DP disease control rating, LV activity at 125.1 g/H / PUCCRT 3DC disease control rating, HV activity at 100 ppm / PUCCRT 1DP disease control rating, HV activity at 100 ppm / HV activity at 100 ppm PUCCRT 3DC (disease control rating) / LV activity at 125.1 g/H PUCCRT 1DP (disease control rating) / LV activity at 125.1 g/H PUCCRT 3DC (disease control rating): A: > 80; B: ≤ 80; C: Not Tested; D: No Activity Observed in the Reported Assay; conditions: for PUCCRT 1DP disease control rating, HV activity / PUCCRT 3DC disease control rating, HV activity: HV application at 100 ppm; for LV activity at 125.1 g/H PUCCRT 1DP (disease control rating) / LV activity at 125.1 g/H PUCCRT 3DC (disease control rating) / PUCCRT 1DP, LV activity at 125.1 g/H (% Control rating) / PUCCRT 3DC, LV activity at 125.1 g/H (% Control rating): low volume application
[1] = 1 Day Protectant, wheat leaf blotch
[2] = 3 Day Curative, wheat leaf blotch
[3] = 1 Day Protectant, wheat brown rust
[4] = 3 Day Curative, wheat brown rust

| Structure (SMILES) | SEPTTR 1DP disease control rating, HV activity (Zymoseptoria tritici; [1]) | SEPTTR 3DC disease control rating, HV activity (Zymoseptoria tritici; [2]) | PUCCRT 1DP disease control rating, HV activity (Puccinia triticina; [3]) | PUCCRT 3DC disease control rating, HV activity (Puccinia triticina; [4]) | also measured |
| --- | --- | --- | --- | --- | --- |
| CCOc1ccnc(C(=O)N[C@@H](C)C(=O)O[C@@H](C)[C@@H](CC(C)C)Oc2cc(F)ccc2F)c1O [Cmpd 1040] | – | – | – | – | HV activity at 100 ppm SEPTTR 1DP (disease control rating) (Zymoseptoria tritici; HV application, 100 ppm, 1 Day Protectant, wheat leaf blotch): D; HV activity at 100 ppm SEPTTR 3DC (disease control rating) (Zymoseptoria tritici; HV application, 100 ppm, 3 Day Curative, wheat leaf blotch): D; HV activity at 100 ppm PUCCRT 1DP (disease control rating) (Puccinia triticina; HV application, 100 ppm, 1 Day Protectant, wheat brown rust): B (≤ 80); HV activity at 100 ppm PUCCRT 3DC (disease control rating) (Puccinia triticina; HV application, 100 ppm, 3 Day Curative, wheat brown rust): A (> 80) |
| CC[C@H](Cc1ccccc1)[C@@H](Oc1ccccc1)[C@H](C)OC(=O)CNC(=O)c1nccc(OC)c1O [Cmpd 312] | D | D | A (> 80) | A (> 80) | – |
| CCC(CC)C(Oc1cccc(F)c1)C(C)OC(=O)C(CC(C)C)NC(=O)c1nccc(OC)c1O (stereo not shown) [Cmpd 426] | D | D | B (≤ 80) | D | – |
| COCCC(=O)Oc1c(OC)ccnc1C(=O)NC(C)C(=O)OC(C)C(CC(C)C)Oc1ccccc1 (stereo not shown) [Cmpd 1100] | – | – | – | – | LV activity at 125.1 g/H SEPTTR 1DP (disease control rating) (Zymoseptoria tritici; [1]): A (> 80); LV activity at 125.1 g/H SEPTTR 3DC (disease control rating) (Zymoseptoria tritici; [2]): A (> 80); LV activity at 125.1 g/H PUCCRT 1DP (disease control rating) (Puccinia triticina; [3]): A (> 80); LV activity at 125.1 g/H PUCCRT 3DC (disease control rating) (Puccinia triticina; [4]): A (> 80) |
| COc1ccnc(C(=O)N[C@@H](C)C(=O)O[C@@H](C)[C@@H](Cc2ccccc2)OCC2CC2)c1O [Cmpd 344] | D | B (≤ 80) | B (≤ 80) | A (> 80) | – |
| COc1ccnc(C(=O)NC(C)C(=O)OC(C)C(Oc2cc(F)ccc2F)C(C)C)c1O (stereo not shown) [Cmpd 392] | A (> 80) | A (> 80) | A (> 80) | A (> 80) | – |
| C=CC[C@@H](Oc1cc(F)cc(Cl)c1)[C@H](C)OC(=O)[C@H](C)NC(=O)c1nccc(OC)c1OCOC(C)=O [Cmpd 1078] | – | – | – | – | LV activity at 125.1 g/H SEPTTR 1DP (disease control rating) (Zymoseptoria tritici; [1]): B (≤ 80); LV activity at 125.1 g/H SEPTTR 3DC (disease control rating) (Zymoseptoria tritici; [2]): B (≤ 80); LV activity at 125.1 g/H PUCCRT 1DP (disease control rating) (Puccinia triticina; [3]): A (> 80); LV activity at 125.1 g/H PUCCRT 3DC (disease control rating) (Puccinia triticina; [4]): A (> 80) |
| COc1ccnc(C(=O)N[C@@H](C)C(=O)O[C@@H](C)[C@H](OC(=O)C(C)C)C(C)C)c1OCOC(C)=O [Cmpd 623] | – | – | – | – | SEPTTR 1DP, LV activity at 125.1 g/H (% Control rating) (Zymoseptoria tritici; 1 Day Protectant): D; SEPTTR 3DC, LV activity at 125.1 g/H (% Control rating) (Zymoseptoria tritici; 3 Day Curative): B (≤ 80); PUCCRT 1DP, LV activity at 125.1 g/H (% Control rating) (Puccinia triticina; 1 Day Protectant): A (> 80); PUCCRT 3DC, LV activity at 125.1 g/H (% Control rating) (Puccinia triticina; 3 Day Curative): A (> 80) |
| CCCO[C@@H]([C@H](C)OC(=O)[C@H](C)NC(=O)c1nccc(OC)c1OCOC(=O)COCC)[C@H](CC)Oc1ccccc1 [Cmpd 512, (S)-(2S,3S,4S)-4-phenoxy-3-propoxyhexan-2-yl-2-(3-((2-ethoxyacetoxy)methoxy)-4-methoxypicolinamido)propanoate] | – | – | – | – | SEPTTR 1DP, LV activity at 125.1 g/H (% Control rating) (Zymoseptoria tritici; 1 Day Protectant): B (≤ 80); SEPTTR 3DC, LV activity at 125.1 g/H (% Control rating) (Zymoseptoria tritici; 3 Day Curative): A (> 80); PUCCRT 1DP, LV activity at 125.1 g/H (% Control rating) (Puccinia triticina; 1 Day Protectant): A (> 80); PUCCRT 3DC, LV activity at 125.1 g/H (% Control rating) (Puccinia triticina; 3 Day Curative): A (> 80) |
| COc1ccnc(C(=O)N[C@H](C)C(=O)O[C@H](C)[C@@H](Oc2ccccc2)C(C)C)c1O [Cmpd 351] | B (≤ 80) | D | D | D | – |
